US10300107B2, “Compositions and methods for CaMKII inhibitors and uses thereof” (THE REGENTS OF THE UNIVERSITY OF COLORADO, priority 2007, dated 2019)
Entries after “also recorded” stand apart in the source; their conditions may differ. Where no end group is shown, it is not given here.

What was measured:
[1] = biological target: T1, CaMKII (Homo sapiens, UniProt Q9UQM7); test: CaMKII self-association in vitro; assay type: biochemical
T1 construct: made in house; host or cells: baculovirus/Sf9 cells
Protocol: (§1) Stimulated CaMKII activity was assessed using purified CaMKII, [γ^32P]ATP, and the CaMKII substrate, syntide2. Reaction was initiated by addition of calcium and calmodulin. To measure autonomous activity, CaMKII was pre-autophosphorylated by incubation with calcium and calmodulin, which was then chelated by addition of EDTA prior to adding the kinase to syntide2 and [γ^32P]ATP. […] To measure self-association, purified CaMKII was incubated for five minutes with 1mM ADP, calcium and calmodulin, and the appropriate inhibitor. The reaction mixture was then centrifuged to pellet the self-associated kinase. The supernatant (S) was removed and saved and the pellet (P) was resuspended. Both were then resolved by SDS-PAGE and western-blotted for CaMKII. Self-associated kinase is found in the pellet.

[2] = test system: CaMKII; assay type: biochemical
Protocol: (§2) CaMKII activity assays. Standard CaMKII assays were done for 1 min at 30° C. previously described, with 20 nM CaMKII (subunit, not holoenzyme concentration), 50 mM PIPES pH 7.2, 0.1 mg/ml BSA, 10 mM MgCl2, 100 μM [γ-^32P] ATP (˜1 Ci/mmol), 1 mM CaCl2, 1-2 μM CaM, and 30-60 μM AC2 peptide (or syntide2). The reactions were spotted onto Whatman P81 phosphocellulose paper rectangles (˜2×2.5 cm). To remove free radioactivity, the paper rectangles were rinsed and washed for 30 min under agitation in 0.5% phosphoric acid or water. […] Radioactivity of the bound peptides was quantified in a Beckman 6000TA scintillation counter by the Cherenkov method. Any changes of the standard protocol were done as indicated. For assays of the GFP-CaMKIIα mutants, kinase amounts were normalized by GFP fluorescence in the extract, and total protein was adjusted with Cos-7 extracts.

[3] = test system: Langerhans' islets; test: Glucose-induced insulin secretion from isolated Langerhans' islets; assay type: cell-based, rat; conditions: 11 mM glucose; EGTA 0.5 mM, KN93 10 μM, antCN27 5 μM, tatCN21 5 μM
Protocol: Insulin secretion. Langerhans' islets acutely isolated from adult male Wistar rats (Harlan) were obtained. […] Inhibitors or EGTA were added 30 min before stimulation. Insulin secreted into the medium during 90 min stimulation was measured using an ELISA kit (CrystalChem).

[4] = biological target: T1, CaMKII; test: Autonomous CaMKII activity (pre-autophosphorylated CaMKII); assay type: biochemical
Protocol: as §1

[5] = test system: hippocampal and cortical cultures; test: Glutamate induced neuronal cell death measured by LDH release; assay type: cell-based, rat
Protocol: In another example, neuronal cell death is measured by LDH release. In this exemplary method, glutamate was used to induce neuronal cell death, A portion of CaMKIIN was fused to a cell penetrating molecule to generate tatCN21a construct.

[6] = biological target: T2, CaMKII binding to GST-NR2B-c (Homo sapiens, UniProt Q9UQM7); test: Ca2+/CaM-induced CaMKII binding to immobilized GST-NR2B-c; conditions: Western blot of eluted CaMKII
T2 construct: made in house; host or cells: CaMKII: baculovirus/Sf9; GST-NR2B-c and CaM: bacteria
Protocol: CaMKII binding to NR2B-c was assessed as previously described. Briefly, GST-NR2B-c was immobilized on anti-GST coated microtiter plates, then overlaid with 100 nM CaMKII in presence of Ca^2+/CaM and 1 or 5 μM of various CN peptides. After extensive wash, protein was eluted from the plates by boiling in SDS-loading buffer. Eluted CaMKII was detected by Western-blot as described above.

[7] = biological target: T1, CaMKII; test: CaMKII auto- and protein-phosphorylation (MAP2, T286, T305; immuno-blot); assay type: biochemical; conditions: KN93 10 μM; for CaMKII T305 auto-phosphorylation: CN21 5 μM; for CaMKII T286 auto-phosphorylation: CN peptides 1-5 μM
Protocol: CaMKII auto- and protein-phosphorylation. 10 nM MAP2 (˜140 nM phosphorylation sites) was used instead of substrate peptide, and reaction times were 5 min, unless indicated otherwise. CaMKII concentration was 100 nM subunits (=8.3 nM holoenzymes). Auto- and MAP2-phosphorylation were assessed by Immuno-blot analysis previously derived (Bayer et al., 2002, incorporated herein by reference) with phospho-T286- or -T305-specific antibodies (1:500; PhosphoSolutions) and an anti-phospho-Thr antibody (1:500; Zymed), respectively. Total CaMKIIα was detected with CBα2 antibody (1:2000; GIBCO). Protein were separated on 10% poly-acrylamid SDS Gels, and electro-blotted onto “Protran” 0.2 μm pore nitrocelluse filters (e.g. Schleicher & Schull) or onto PVDF filters (e.g. Perkin Elmer). Alternatively, for quantitative analyses, a vacuum-driven slot-blot manifold (e.g. Schleicher & Schull) was used for transfer onto PVDF membranes. PVDF membranes were air-dried for 15 min, then wetted in Methanol. Blots were blocked in 5% milk in TBS-T (Tris-buffered saline pH 7.6 with 0.1% Tween-20). Antibodies were incubated for 45-60 min at room temperature in 2.5% milk in TBS-T; for the anti-phospho-T305 antibody, 2.5% BSA was used instead. After secondary antibody incubation (anti-mouse or anti-rabbit horseradish peroxidase conjugate; Amersham; 1:4000), detection was done using the “Western Lightning” system (Perkin Elmer) and exposure to “Hyperfilm” (Amersham). For quantitative analysis, chemoluminescence was captured using a ChemiImager 4400 imaging system (Alpha Innotek) instead of film. Only non-saturated images were analyzed, using AlphaEase software.

[8] = biological target: T3, CaM dissociation from CaMKII (Homo sapiens, UniProt Q9UQM7); test: TA-CaM dissociation from CaMKII; assay type: binding; conditions: 5 μM; 150 nM CaMKII, 30 nM TA-CaM
T3 construct: made in house; host or cells: baculovirus/Sf9 cells (CaMKII)
Protocol: TA-CaM dissociation was assessed by increased TA-CaM (30 nM) fluorescence after dissociation from CaMKII or its CaM-binding domain (CBD) (150 nM) during a chase with unlabeled CaM (60 μM). Buffer contained 50 mM Hepes pH 7.4, 150 mM KCl, 2 mM MgCl2, 2 mM MgADP, 2 mM CaCl2, and 0.1 mg/ml BSA. Fluorescence was measured in a time scan (1 sec samples) at 365 nm excitation and 415 nm emission wavelength on a spectro-fluorometer (Fluorolog3; Horiba Jobin Yvon) and was corrected for photobleach (FIG. 16).

[9] = test system: other kinases of the panel (CaMKIV, PKA, PKCα, JNK1α1, MAPK1, raf); assay type: biochemical; conditions: 5 μM peptide
Protocol: Kinase panels. A panel of different kinases was tested utilizing a kinase profiling service (Upstate Biotechnology). 40 min reactions at room temperature contained 0.1% BSA and were started by addition of 10 mM MgAcetate and [γ-^33P-ATP], stopped by 0.1% phosphoryic acid, spotted on filter mats, and washed 3×5 min in 75 mM phosphoric acid and 1× in methanol prior to drying and scintillation counting. CaMKII and IV were activated by 5 mM CaCl2 and 1.7 μM CaM in 40 mM Hepes pH 7.4; substrate was 30 μM […] (SEQ ID NO:22). Buffers and substrates for the other kinases are stated in brackets: PKA (8 mM MOPS pH 7, 0.2 mM EDTA; 30 μM Kemptide), PKCα (20 mM Hepes pH 7.2, 0.3% Triton X-100, 0.1 mg/ml phosphatidylserine, 10 μg/ml diacylglycerol; 0.1 mg/ml histone H1), JNK1α1 (50 mM Tris pH 7.5, 0.1 mM EGTA, 0.1% β-mercapto-ethanol; 3 μM ATF), MAPK1 and raf (25 mM Tris, pH 7.5, 0.02 mM EGTA; 250 μM proprietary substrate and 0.66 mg/ml myelin basic protein, respectively). Reactions in presence of 5 μM CN21a were done in duplicate, and normalized to four parallel reactions without inhibitor.

[10] = biological target: T1, CaMKII; test: CaMKII phosphorylation of crude liver extracts or GST-NR2B-c (autoradiography); assay type: biochemical; conditions: 5 μM
Protocol: Crude liver extracts or NR2B-c were phosphorylated with 100 nM autophosphorylated CaMKII, 2 μM CaM and 40 μM [γ-^32P]-ATP (˜2 Ci/mmole). Pre-auto-phosphorylation (of 300 nM CaMKII) was done for 5 min on ice, in presence of 3 mM CaCl2, 6 μM CaM and 120 μM unlabelled ATP. After addition of [γ-^32P]-ATP and inhibitors as indicated, 2 min reactions at 30° C. were started by addition of substrate protein extract (⅓^rd to 1/12th of total reaction volume), and stopped with 25 mM EDTA. Phosphorylation was detected by autoradiography after gel electrophoresis.

[11] = test system: CaMKII; test: Kinase panel (kinase profiling service): CaMKII; assay type: biochemical; conditions: 5 μM peptide
[12] = biological target: CaMKI (Homo sapiens, UniProt Q14012); test: CaMKI activity / inhibition; assay type: biochemical
Sequence of CaMKI (Q14012 whole entry, species assumed): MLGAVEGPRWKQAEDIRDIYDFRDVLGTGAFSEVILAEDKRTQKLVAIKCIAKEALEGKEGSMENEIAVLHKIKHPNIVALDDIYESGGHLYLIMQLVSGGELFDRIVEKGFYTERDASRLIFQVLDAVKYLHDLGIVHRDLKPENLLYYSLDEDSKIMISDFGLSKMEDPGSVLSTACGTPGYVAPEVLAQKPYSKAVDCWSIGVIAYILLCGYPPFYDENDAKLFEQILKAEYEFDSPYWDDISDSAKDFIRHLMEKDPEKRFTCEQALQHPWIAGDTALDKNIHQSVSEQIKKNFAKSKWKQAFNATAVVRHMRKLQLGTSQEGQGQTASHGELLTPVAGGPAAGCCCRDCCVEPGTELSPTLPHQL
Text: For curve fit, the Hill coefficient was set as 1.

[13] = test system: CaMKII T-site mutants W237R and 1205K; test: Kinase assay with GFP-CaMKIIα T-site mutants; assay type: biochemical; conditions: substrate syntide2
Text: In another example, FIG. 3. […] FIG. 3A represents a model of CaMKII kinase domain (Rosenberg et al., 2005) with the substrate binding S-site (indicated), the T286-region binding T-site (indicated), and the regulatory region (shown as ribbon). The arrow indicates the proposed orientation of CN21a binding to the T-site, when the regulatory region is displaced after activation. […] Results are normalized to maximal kinase activity without inhibitor. Error bars show s.e.m. […] Bound CaMKII was eluted and detected by Western blot.
as §2

[14] = test system: protein kinase C (PKC); test: Phosphorylation of CN19 peptides by PKC in vitro; assay type: biochemical
Text: CN19 phosphorylation at S12 by protein kinase C reduces potency of CaMKII inhibition. In another exemplary method, protein kinase C (PKC) activity was examined with respect to CN19 as a substrate or the S12 mutant. […] The CN19 region most sensitive to Ala substitutions (surrounding R11) contains a potential PKC phosphorylation site (S12).
FIGS. 22A and 22B represent CN19 phosphorylation at S12 by PKC reduces potency of CaMKII inhibition. A, PKC phosphorylated CN19 but not its S12A mutant in vitro, as measured by phosphate incorporation. The phosphorylation rate of CN19 was >50% compared to a MARCKS peptide substrate of PKC. […] S12 was sensitive also to various other mutations (see Table 1 and data not shown). Error bars indicate s.e.m. in all panels.

Q: Which “CaMKII self-association in vitro” value [1] does the source give for `COc1ccc(S(=O)(=O)N(CCO)c2ccccc2CN(C)C/C=C/c2ccc(Cl)cc2)cc1` [KN93, reference compound] here?
A: Its value is “inhibited”.

Q: And the “calcium and calmodulin stimulated CaMKII activity” value ([2]; substrate syntide2)?
A: Its value is “inhibit calcium and calmodulin stimulated CaMKII activity”.

Q: What about the glucose-induced insulin secretion [3] of the same compound?
A: The glucose-induced insulin secretion was “inhibited”.

Q: What about the “autonomous CaMKII activity” value [4] of the same compound?
A: Its value is “only tatCN21 inhibits autonomy”.

Q: And the “glutamate induced neuronal cell death” value ([5]; added 1 h after the insult)?
A: The value was “not when added after the insult; also recorded: only when applied during but not after glutamate insult”.

Q: What about the “glutamate induced neuronal cell death” value ([5]; present during the insult) of the same compound?
A: Its value is “protective only when present during the insult; also recorded: reduce by half”.

Q: What about the “CaMKII binding to immobilized GST-NR2B-c / NR2B” value [6] of the same compound?
A: Its value is “inhibited binding”.

Q: What about the “CaMKII T305 auto-phosphorylation” value [7] of the same compound?
A: The value was “blocked T305”.

Q: What about the “CaMKII T286 auto-phosphorylation” value [7] of the same compound?
A: Its value is “essentially completely blocked”.

Q: How did the “CaM dissociation from CaMKII” value [8] turn out when KRPPKLGQIGRSKRVVIEDDR [CN21] was run?
A: Its value is “slowed down CaM dissociation from CaMKII”.

Q: What about the “inhibition of CaMKII isoforms α and β” value [2] of the same compound?
A: The value was “inhibit both major brain CaMKII isoforms, α and β”.

Q: What about the “inhibitory potency on CaMKII activity” value ([2]; CN truncation peptides, substrate peptides AC2 or syntide 2, listed as CN21a) of the same compound?
A: Its value is “contains the full inhibitory potency; also recorded: full inhibitory effect”.

Q: And the IC50 ([2]; phosphorylation of syntide 2, read-out: IC50 of CaMKII inhibition)?
A: Its IC50 is ~0.1 µM.

Q: What about the “mechanism of CaMKII inhibition” value ([2]; versus substrate AC2, Lineweaver-Burk plot) of the same compound?
A: Its value is “competitive with AC2”.

Q: What about the “activity of the other kinases of the panel” value [9] of the same compound?
A: The value was “not affected”.

Q: And the “CaMKII binding to immobilized GST-NR2B-c / NR2B” value [6]?
A: The value was “efficiently blocked”.

Q: And the “CaMKII phosphorylation of bacterially expressed GST-NR2B-c” value [10]?
A: The value was “blocks CaMKII phosphorylation”.

Q: What about the “CaMKII phosphorylation of crude liver protein extracts” value [10] of the same compound?
A: The value was “blocks CaMKII phosphorylation”.

Q: And the “CaMKII activity in kinase panel” value [11]?
A: The value was “completely blocked”.

Q: And the “CaMKII T305 auto-phosphorylation” value [7]?
A: Its value is “blocked T305”.

Q: And the “CaMKII T305 auto-phosphorylation” value ([7]; listed as CN21a)?
A: The value was “blocks”.

Q: What about the “CaMKII T286 auto-phosphorylation” value [7] of the same compound?
A: The value was “no significant effect”.

Q: What about the “CaMKII T286 auto-phosphorylation” value ([7]; listed as CN21a) of the same compound?
A: Its value is “not T286 autophosphorylation”.

Q: And the “effect on CaMKI activity” value [12]?
A: The value was “no significant effect”.

Q: What about the “activity of CaMKII T-site mutants W237R and 1205K compared to GFP-CaMKIIα wild type” value [13] of the same compound?
A: Its value is “significantly less affected”.

Q: Which results are given for KRPPKLGQIGRSKRVVIED [CN19]?
A: phosphorylated by PKC [14]: phosphorylated by PKC; phosphorylation rate by PKC compared to MARCKS peptide substrate [14]: > 50%; IC50 [12]: ~36 µM; effect on CaMKI activity [12]: no significant effect
